This is an account of results in US12594354B2, “Compositions for visualization of cleaning efficacy and product coverage” (priority 2011, dated 2026).

Holding throughout (format): physicochemical
The nature of series [1]: Visible fluorescence under short (254 nm) and long (360 nm) ultraviolet light. Particulars: in distilled water; visually in dark, 9 watt UV lamp at 6 inches. From the text: All three tracer substances Riboflavin, Folic Acid and Quinine have unique molecular structures that enable them to mix into base solutions with varying polar and non polar charges. Studies by the authors of the current embodiment have also shown that the substances show an affinity for organic matter residue (e.g. proteins, fats, oils, soil, mineral deposits, etc.). Riboflavin (B2),Folic Acid (B9) and Quinine are approved food additives (Codex General Standard for Food Additives, Codex STAN 192; Code of Federal Regulations Title 21 Sec. 184.1695; Sec. 73.450; Sec. 104.20, Sec. 101.9 and Sec. 172.575). […] Experiments by the inventors have shown that when Riboflavin and Quinine are combined in solution the two GRAS or food additive fluorophores fluoresce synergistically under long and short wave ultraviolet light. [table]

The nature of series [2]: Detection sensitivity of tracers by UV fluorescence and spectrophotometer. Particulars: for sensitivity of spectrophotometer absorption and transmission detection: tracers vs control samples. From the text:
One method of detecting the presence of the food grade vitamin tracer(s) is by exciting the mixture, treated area or sample swab with ultraviolet light so that the vitamins fluoresce. Riboflavin fluorescence is the identifier for visual observations. Folic Acid fluoresces, but not in the visible spectrum. The color of light is related to the wavelength or frequency of the light. Visible light—to which our eyes are most sensitive—falls in the wavelength range of about 400 to 750 nm. In the absence of visible light and when Riboflavin is excited by long-wave ultraviolet light (maximum lambda=˜365 nm-below the visible spectrum) Riboflavin emits/fluoresces light waves in the visible spectrum (˜450 to 650) which are very distinguishable in the dark when the only other light source is from long (˜365 nm) and midrange (˜312 nm) ultraviolet light. This phenomenon enables visible detection of Riboflavin at levels as low as 1 ppm. It is well know that different compounds have unique absorption and transmission spectra. Another method of quantifying the presence of the food grade vitamin tracers Riboflavin and Folic Acid is by use of a spectrophotometer whereby wavelength absorption and transmission results of known tracers Vs control samples provide characteristic spectra analysis that can be used to determine the absence or presence with sensitivity down to 1 ppm.

Series [3] can be described thus: Riboflavin fluorescence persistence in sanitizer and bleach base materials. An excerpt: FIG. 3 is a flow chart showing how the GRAS or food additive composition is mixed with sanitizer(s) or cleaning chemical(s) for visualization of cleaning efficacy so those trained in the art can validate or verify the hygienic condition of equipment or environments after cleaning. The steps involved with making the combined fluorescent additive and base material invention solution include; (1) select the base material and the specific volume that will be used for the application. It is important to know the composition of the base material, its physical properties and establish a set volume. For purposes of this embodiment, base material can be potable water or any of the various sanitation chemicals that has been approved for use in the food, beverage, pharmaceutical, feed industry by appropriate regulatory authorities. The base material will be approximately 95% of the total end product. Potable tap water is an excellent base material for combining with the embodiment composition to produce a solution that can be applied to equipment at any stage of the cleaning process prior final rinse. Quat sanitizers, liquid soaps and detergents have also been shown by the authors to be excellent base materials. Riboflavin mixed easily into solution when 1,000 ppm was added to KayQuat II (>1,000 ppm quaternary ammonia). Fluorescence was intense from day one through day 270 and has not diminished at the time of this publication. Similar tests were performed on Ajax Liquid Soap with Bleach Alternative with similar results.
It should be noted that bench top studies with concentrate hypochlorite solutions have been shown by the authors to rapidly quench Riboflavin fluorescence. […] Highly alkaline ammonia base material produced similar results. The authors were concerned that chlorinated alkaline detergents and/or foaming cleaners would quench the fluorescence of the embodiment composition so tests were performed to determine the effect.

[4] abbreviates: 2,500 ppm added to a 30% solution of chlorine bleach.

Structures are written as SMILES. Structures can show the parent of a compound that is named as a salt.

As to `Cc1cc2nc3c(=O)[nH]c(=O)nc-3n(C[C@H](O)[C@H](O)[C@H](O)CO)c2cc1C` [50 ppm Riboflavin USP in distilled water, Riboflavin], in series [1], the “Visual Fluorescence Long Wave (360 nm)” value was “Moderate” and the “Visual Fluorescence Short Wave (254 nm)” value is “Very Slight”.

With `Nc1nc2ncc(CNc3ccc(C(=O)N[C@@H](CCC(=O)O)C(=O)O)cc3)nc2c(=O)[nH]1` [Folic Acid], the “sensitivity of spectrophotometer absorption and transmission detection” value in series [2] is 1 ppm.

On to `C=C[C@H]1C[N@@]2CC[C@H]1C[C@H]2[C@H](O)c1ccnc2ccc(OC)cc12` [Quinine Sulfate, Dihydrate], for which, in series [1], the “Visual Fluorescence Long Wave (360 nm)” value is listed as “Moderate” and the “Visual Fluorescence Short Wave (254 nm)” value is on record as “Slight”.

In series [2] (excited by long (~365 nm) and midrange (~312 nm) UV in the dark), `Cc1cc2nc3c(=O)[nH]c(=O)nc-3n(C[C@H](O)[C@H](O)[C@H](O)CO)c2cc1C` [Riboflavin] registered a visible detection level of 1 ppm. Also, the “sensitivity of spectrophotometer absorption and transmission detection” value in series [2] was 1 ppm. The “Fluorescence from day one through day 270” value in series [3] (1,000 ppm added to KayQuat II (>1,000 ppm quaternary ammonia)) was “intense”. For the same compound, in series [3] (setting [4]), the “fluorescence after 8 hours” value is listed as “diminished completely” and the “fluorescence observed for up to 4 hours” value is “Slight”.
